Reference: paper PMC2730737 (Biochemistry, 2009)
Numbering of substitutions follows the chain as printed.

Experiments:
WT AdoMetDC = target: T1, WT AdoMetDC (Homo sapiens, UniProt P17707); test: Stopped-flow intrinsic protein fluorescence binding kinetics, WT AdoMetDC; conditions: for intrinsic fluorescence change on rapid mixing with AdoMetDC: stopped-flow, excitation 298 nm, emission 340 nm
T1 sequence (P17707 1-67 limits assumed): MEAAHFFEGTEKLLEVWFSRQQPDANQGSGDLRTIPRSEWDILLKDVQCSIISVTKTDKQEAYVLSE
T1 sequence (P17707 68-334 limits assumed): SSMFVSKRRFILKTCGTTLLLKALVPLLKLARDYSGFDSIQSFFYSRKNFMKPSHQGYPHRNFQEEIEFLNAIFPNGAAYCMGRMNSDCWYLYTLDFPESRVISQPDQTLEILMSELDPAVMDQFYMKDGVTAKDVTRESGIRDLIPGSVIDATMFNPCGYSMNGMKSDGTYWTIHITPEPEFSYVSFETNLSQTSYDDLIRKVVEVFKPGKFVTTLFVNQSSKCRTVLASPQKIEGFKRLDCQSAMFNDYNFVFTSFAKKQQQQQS

AdoMetDC F223A mutant = target: T2, AdoMetDC F223A mutant (Homo sapiens, UniProt P17707, F223A); test: Stopped-flow intrinsic protein fluorescence binding kinetics, F223A mutant; conditions: single exponential fit
T2 sequence (P17707 1-67 limits assumed): T1 sequence (P17707 1-67 limits assumed)
T2 sequence (P17707 68-334 F223A limits assumed): T1 sequence (P17707 68-334 limits assumed) with F156A

[1] = modeling studies using NMR constraints, molecular mechanics; cited from earlier work
AdoMetDC = target: T3, AdoMetDC (Homo sapiens, UniProt P17707); conditions: cited from earlier work
T3 sequence (P17707 1-67 limits assumed): T1 sequence (P17707 1-67 limits assumed)
T3 sequence (P17707 68-334 limits assumed): T1 sequence (P17707 68-334 limits assumed)

| k2 + k−2 (WT AdoMetDC; WT enzyme, hyperbolic fit of slow phase) [s⁻¹] | k−1 (WT AdoMetDC; WT enzyme, linear fit of fast phase, 25 °C, pH 7.5) [s⁻¹] | intrinsic fluorescence change on rapid mixing with AdoMetDC (WT AdoMetDC) | k1 (slope) (AdoMetDC F223A mutant) | k−1 (y-intercept) (AdoMetDC F223A mutant) [s⁻¹] | SMILES | energy difference between the anti and syn conformations in solution [1] [kcal/mol] | IC50 (AdoMetDC) [µM] |
| --- | --- | --- | --- | --- | --- | --- | --- |
| – | – | too weak to measure | – | – | C[S+](C)C[C@H]1O[C@@H](n2cnc3c(N)ncnc32)[C@H](O)[C@@H]1O [MMTA, 5′-deoxy-5′-(dimethylsulfonio)adenosine] | – | 15 |
| – | – | no significant change | – | – | Nc1ncnc2c1ncn2[C@@H]1O[C@H](CSCC[C@H](N)C(=O)O)[C@@H](O)[C@H]1O [SAH, S-adenosylhomocysteine] | – | – |

| SMILES | k2 + k−2 (WT AdoMetDC; WT enzyme, hyperbolic fit of slow phase) [s⁻¹] | k−1 (WT AdoMetDC; WT enzyme, linear fit of fast phase, 25 °C, pH 7.5) [s⁻¹] | intrinsic fluorescence change on rapid mixing with AdoMetDC (WT AdoMetDC) | k1 (slope) (AdoMetDC F223A mutant) | k−1 (y-intercept) (AdoMetDC F223A mutant) [s⁻¹] | energy difference between the anti and syn conformations in solution [1] [kcal/mol] | IC50 (AdoMetDC) [µM] |
| --- | --- | --- | --- | --- | --- | --- | --- |
| C[S+](CC[C@H](N)C(=O)[O-])C[C@H]1O[C@@H](n2cnc3c(N)ncnc32)[C@H](O)[C@@H]1O (stereo partly drawn) [AdoMet, S-adenosylmethionine] | 3.7 ± 0.2 | 33 ± 2 | intrinsic fluorescence change was observed | 1.7 ± 0.3 × 10^−4 μM^−1s^−1 | 2.4 ± 0.2 | -34 | – |
